According to US12351559B2 (Biohaven Therapeutics Ltd., priority 2014, dated 2025):

These compounds were tested against T1, Kv7.2/7.3 (Homo sapiens, UniProt O43525+O43526) (assay: Kv7.2/7.3 activation assay, QPatch planar patch-clamp, single concentration screen). Settings: Kv7.2/Kv7.3 co-expressing HEK cells, compound 3 μM, steady-state current at end of 2 s pulse to −30 mV.
T1 construct: host or cells: HEK cells, tetracycline-inducible expression
Assay type: cell-based
Set-up: key: <1.2-fold increase over baseline (−); +/−: as a range from <1.2-fold increase over baseline (−) up to >6-fold increase over baseline (+++); as a range from <1.2-fold increase over baseline (−) up to >6-fold increase over baseline (+++); as a range from <1.2-fold increase over baseline (−) up to >6-fold increase over baseline (+++); >6-fold increase over baseline (+++)

Kv7.2/7.3 Activity: increase in current over baseline	Structure (SMILES)
+	CC(C)(O)c1ccc2nc(NC(=O)C3CC34CC4)n(C3CCC3)c2c1 (stereo not drawn) [Example 105, N-(1-cyclobutyl-6-(2-hydroxypropan-2-yl)-1H-benzo[d]imidazol-2-yl)spiro[2.2]pentane-1-carboxamide]
+/−	CCC(O)(CC)c1ccc2nc(NC(=O)C3CC34CC4)n(C3CCC3)c2c1 (stereo not drawn) [Example 106, N-(1-cyclobutyl-6-(3-hydroxypentan-3-yl)-1H-benzo[d]imidazol-2-yl)spiro[2.2]pentane-1-carboxamide]
+	C[C@](O)(CC(=O)Nc1nc2ccc(Cl)cc2n1-c1ccc(F)cc1)c1ccccc1 [Example 107, (S)-N-(6-chloro-1-(4-fluorophenyl)-1H-benzo[d]imidazol-2-yl)-3-hydroxy-3-phenylbutanamide]
+/−	C[C@@](O)(CC(=O)Nc1nc2ccc(Cl)cc2n1-c1ccc(F)cc1)c1ccccc1 [Example 108, (R)-N-(6-chloro-1-(4-fluorophenyl)-1H-benzo[d]imidazol-2-yl)-3-hydroxy-3-phenylbutanamide]
+	CC(C)(O)c1ccc2nc(NC(=O)C3CC34CC4)n(-c3ccc(F)cc3)c2c1 (stereo not drawn) [Example 109, N-(1-(4-fluorophenyl)-6-(2-hydroxypropan-2-yl)-1H-benzo[d]imidazol-2-yl)spiro[2.2]pentane-1-carboxamide]
+	CCOC(=O)Cc1ccc2nc(NC(=O)CC(C)(C)C)n(C3CCC3)c2c1F [Example 110, ethyl 2-(1-cyclobutyl-2-(3,3-dimethylbutanamido)-7-fluoro-1H-benzo[d]imidazol-6-yl)acetate]
+	CCOC(=O)Cc1ccc2nc(NC(=O)[C@H]3CC3(C)C)n(C3CCC3)c2c1F [Example 111, ethyl (S)-2-(1-cyclobutyl-2-(2,2-dimethylcyclopropane-1-carboxamido)-7-fluoro-1H-benzo[d]imidazol-6-yl)acetate]
++	CCOC(=O)Cc1ccc2nc(NC(=O)CC(C)(C)C)n(-c3ccc(F)cc3)c2c1F [Example 112, ethyl 2-(2-(3,3-dimethylbutanamido)-7-fluoro-1-(4-fluorophenyl)-1H-benzo[d]imidazol-6-yl)acetate]
+	CC(C)(O)Cc1ccc2nc(NC(=O)[C@H]3CC3(C)C)n(C3CCC3)c2c1F [Example 113, (S)-N-(1-cyclobutyl-7-fluoro-6-(2-hydroxy-2-methylpropyl)-1H-benzo[d]imidazol-2-yl)-2,2-dimethylcyclopropane-1-carboxamide]
+	CC(C)(C)CC(=O)Nc1nc2ccc(CC(C)(C)O)c(F)c2n1C1CCC1 [Example 114, N-(1-cyclobutyl-7-fluoro-6-(2-hydroxy-2-methylpropyl)-1H-benzo[d]imidazol-2-yl)-3,3-dimethylbutanamide]
+	CC(C)(O)Cc1ccc2nc(NC(=O)[C@H]3CC3(C)C)n(-c3ccc(F)cc3)c2c1F [Example 115, (S)-N-(7-fluoro-1-(4-fluorophenyl)-6-(2-hydroxy-2-methylpropyl)-1H-benzo[d]imidazol-2-yl)-2,2-dimethylcyclopropane-1-carboxamide]
+	CC(C)(C)CC(=O)Nc1nc2ccc(CC(C)(C)O)c(F)c2n1-c1ccc(F)cc1 [Example 116, N-(7-fluoro-1-(4-fluorophenyl)-6-(2-hydroxy-2-methylpropyl)-1H-benzo[d]imidazol-2-yl)-3,3-dimethylbutanamide]
+/−	CC(C)(C)CC(=O)Nc1nc2ccc(CC(=O)O)c(F)c2n1C1CCC1 [Example 117, 2-(1-cyclobutyl-2-(3,3-dimethylbutanamido)-7-fluoro-1H-benzo[d]imidazol-6-yl)acetic acid]
+	CN(C)C(=O)Cc1ccc2nc(NC(=O)CC(C)(C)C)n(C3CCC3)c2c1F [Example 118, N-(1-cyclobutyl-6-(2-(dimethylamino)-2-oxoethyl)-7-fluoro-1H-benzo[d]imidazol-2-yl)-3,3-dimethylbutanamide]
+/−	Cc1cc2nc(NC(=O)C[C@](C)(O)c3ccccc3)n(C(C)(C)C)c2cc1C#N [Example 119, (S)-N-(1-(tert-butyl)-6-cyano-5-methyl-1H-benzo[d]imidazol-2-yl)-3-hydroxy-3-phenylbutanamide]
+	Cc1cc2nc(NC(=O)C[C@@](C)(O)c3ccccc3)n(C(C)(C)C)c2cc1C#N [Example 120, (R)-N-(1-(tert-butyl)-6-cyano-5-methyl-1H-benzo[d]imidazol-2-yl)-3-hydroxy-3-phenylbutanamide]
+	Cc1cc2nc(NC(=O)C[C@](C)(O)c3ccc(F)cc3)n(C(C)(C)C)c2cc1C#N [Example 121, (S)-N-(1-(tert-butyl)-6-cyano-5-methyl-1H-benzo[d]imidazol-2-yl)-3-(4-fluorophenyl)-3-hydroxybutanamide]
++	Cc1cc2nc(NC(=O)C[C@](C)(O)c3ccccc3F)n(C(C)(C)C)c2cc1C#N [Example 122, (S)-N-(1-(tert-butyl)-6-cyano-5-methyl-1H-benzo[d]imidazol-2-yl)-3-(2-fluorophenyl)-3-hydroxybutanamide]
+/−	Cc1cc2nc(NC(=O)C[C@](C)(O)c3ccccc3)n(C3CCC3)c2cc1C#N [Example 123, (S)-N-(6-cyano-1-cyclobutyl-5-methyl-1H-benzo[d]imidazol-2-yl)-3-hydroxy-3-phenylbutanamide]
+/−	Cc1cc2nc(NC(=O)C[C@@](C)(O)c3ccccc3)n(C3CCC3)c2cc1C#N [Example 124, (R)-N-(6-cyano-1-cyclobutyl-5-methyl-1H-benzo[d]imidazol-2-yl)-3-hydroxy-3-phenylbutanamide]

More lines, now with the values behind:

Structure (SMILES)	Kv7.2/7.3 Activity: increase in current over baseline
C[C@](O)(CC(=O)Nc1nc2ccc(C(F)(F)F)cc2n1C1CCC1)c1ccccc1 [Example 88, (S)-N-(1-cyclobutyl-6-(trifluoromethyl)-1H-benzo[d]imidazol-2-yl)-3-hydroxy-3-phenylbutanamide]	+
CC(C)(O)c1ccc2nc(NC(=O)[C@@H]3CC3(C)C)n(C3CCC3)c2c1 [Example 89, (R)-N-(1-cyclobutyl-6-(2-hydroxypropan-2-yl)-1H-benzo[d]imidazol-2-yl)-2,2-dimethylcyclopropane-1-carboxamide]	++
CC(C)(C)C(=O)Nc1nc2ccc(C(C)(C)O)cc2n1C1CCC1 [Example 90, N-(1-cyclobutyl-6-(2-hydroxypropan-2-yl)-1H-benzo[d]imidazol-2-yl)pivalamide]	+/−
CC1(n2c(NC(=O)C[C@](C)(O)c3ccccc3)nc3ccc(C#N)cc32)CCC1 [Example 95, (S)-N-(6-cyano-1-(1-methylcyclobutyl)-1H-benzo[d]imidazol-2-yl)-3-hydroxy-3-phenylbutanamide]	++
CC1(n2c(NC(=O)C[C@@](C)(O)c3ccccc3)nc3ccc(C#N)cc32)CCC1 [Example 96, (R)-N-(6-cyano-1-(1-methylcyclobutyl)-1H-benzo[d]imidazol-2-yl)-3-hydroxy-3-phenylbutanamide]	++
CC(C)(O)c1ccc2nc(NC(=O)CC(O)(C3CC3)C3CC3)n(C3CCC3)c2c1 [Example 97, N-(1-cyclobutyl-6-(2-hydroxypropan-2-yl)-1H-benzo[d]imidazol-2-yl)-3,3-dicyclopropyl-3-hydroxypropanamide]	+/−
O=C(CC(O)(C1CC1)C1CC1)Nc1nc2ccc(C(F)(F)F)cc2n1C1CCC1 [Example 98, N-(1-cyclobutyl-6-(trifluoromethyl)-1H-benzo[d]imidazol-2-yl)-3,3-dicyclopropyl-3-hydroxypropanamide]	+
C[C@](O)(CC(=O)Nc1nc2ccc(Cl)cc2n1C1CCC1)c1ccccc1 [Example 99, (S)-N-(6-chloro-1-cyclobutyl-1H-benzo[d]imidazol-2-yl)-3-hydroxy-3-phenylbutanamide]	+
C[C@@](O)(CC(=O)Nc1nc2ccc(Cl)cc2n1C1CCC1)c1ccccc1 [Example 100, (R)-N-(6-chloro-1-cyclobutyl-1H-benzo[d]imidazol-2-yl)-3-hydroxy-3-phenylbutanamide]	+
CC(C)(O)c1ccc2nc(NC(=O)C3CC34CCC4)n(C3CCC3)c2c1 (stereo not drawn) [Example 101, N-(1-cyclobutyl-6-(2-hydroxypropan-2-yl)-1H-benzo[d]imidazol-2-yl)spiro[2.3]hexane-1-carboxamide]	+
CC(C)(O)c1ccc2nc(NC(=O)C3CCC(F)(F)C3)n(C3CCC3)c2c1 (stereo not drawn) [Example 102, N-(1-cyclobutyl-6-(2-hydroxypropan-2-yl)-1H-benzo[d]imidazol-2-yl)-3,3-difluorocyclopentane-1-carboxamide]	+/−
C[C@](O)(CC(=O)Nc1nc2ccc(Cl)cc2n1C1CCC1)c1ccc(F)cc1 [Example 103, (S)-N-(6-chloro-1-cyclobutyl-1H-benzo[d]imidazol-2-yl)-3-(4-fluorophenyl)-3-hydroxybutanamide]	+

Same assay, conditions: Kv7.2/Kv7.3 co-expressing HEK cells, compound @ 1 μM

Kv7.2/7.3 Activity: increase in current over baseline	Structure (SMILES)
+(@ 1 μM)	CC(C)(C)CC(=O)Nc1nc2ccc(C(C)(C)O)cc2n1-c1ccc(F)cc1 [Example 104, N-(1-(4-fluorophenyl)-6-(2-hydroxypropan-2-yl)-1H-benzo[d]imidazol-2-yl)-3,3-dimethylbutanamide]
